The source of these data is ChEMBL document CHEMBL1833833, “Design and synthesis of long acting inhaled corticosteroids for the treatment of asthma” (Bioorg Med Chem Lett, 2011).

For one data set, the system named is PBMC. Put plainly: Inhibition of TNFalpha release in human PBMC by ELISA assay. It is filed as functional, cell-based.
Another data set has as its system Blood. Put plainly: Inhibition of TNFalpha release in LPS-stimulated human whole blood by ELISA assay. It is filed as functional, tissue-based.
A short description of data set [1]: Metabolic stability of compound in human liver microsomes assessed as intrinsic clearance by equilibrium dialysis. It is filed as ADME, Microsome.
For another data set, the system named is Liver microsomes. Put plainly: Metabolic stability of compound in human liver microsomes assessed as unbound intrinsic clearance by equilibrium dialysis. It is filed as ADME, Microsome.
Data set [2] in a line: Metabolic stability in human liver microsomes assessed as phase 2 glucuronidation in presence of UDPGA. Particulars: read-out: Stability. It is filed as ADME, Microsome.
The test system of data set [3] is Rattus norvegicus. Put plainly: Clearance in rat at 0.5 mg/kg, iv. The data set is classed as ADME, organism-based. The arrangement: dose 0.5 mg/kg, route intravenous. Particulars: in vivo.
Data set [4] concerns Rattus norvegicus. Nature of the data set: Unbound clearance in rat at 0.5 mg/kg, iv. On the set-up: dose 0.5 mg/kg, route intravenous. To be noted: in vivo. The data set is classed as ADME, organism-based.
Data set [5] in a line: Oral bioavailability in rat at 2 mg/kg. The data set is classed as ADME, organism-based. Particulars: in vivo.
Data set [6] in a line: Half life in rat. The data set is classed as ADME, organism-based. Particulars: in vivo.
In data set [7] the test system is Rattus norvegicus. Put plainly: Antiinflammatory activity in rat assessed as inhibition of LPS-induced lung neutrophilia 10 ug, intratracheally administered 1 hr prior to LPS challenge measured after 1 hr. It is filed as functional.
The subject of data set [8] is Rattus norvegicus. Put plainly: Antiinflammatory activity in rat assessed as inhibition of LPS-induced lung neutrophilia 10 ug, intratracheally administered 1 hr prior to LPS challenge measured after 2 hrs. It is filed as functional.
A short description of data set [9]: Antiinflammatory activity in rat assessed as inhibition of LPS-induced lung neutrophilia 10 ug, intratracheally administered 1 hr prior to LPS challenge measured after 4 hrs. The data set is classed as functional, Neutrophil.
The nature of data set [10]: Antiinflammatory activity in rat assessed as inhibition of LPS-induced lung neutrophilia 10 ug, intratracheally administered 1 hr prior to LPS challenge measured after 8 hrs. The data set is classed as functional, Neutrophil.
The nature of data set [11]: Solubility of compound in simulated lung fluid by dialysis bag method. The data set is classed as physicochemical.
Data set [12] is described as follows: Antiinflammatory activity in rat assessed as effective dose for inhibition of LPS-induced lung neutrophilia administered intratracheally 4 hr prior to LPS challenge. It is filed as functional, Neutrophil.
For data set [13], the target named is T1, Glucocorticoid receptor (Homo sapiens) (UniProt P04150).
T1 sequence (whole entry): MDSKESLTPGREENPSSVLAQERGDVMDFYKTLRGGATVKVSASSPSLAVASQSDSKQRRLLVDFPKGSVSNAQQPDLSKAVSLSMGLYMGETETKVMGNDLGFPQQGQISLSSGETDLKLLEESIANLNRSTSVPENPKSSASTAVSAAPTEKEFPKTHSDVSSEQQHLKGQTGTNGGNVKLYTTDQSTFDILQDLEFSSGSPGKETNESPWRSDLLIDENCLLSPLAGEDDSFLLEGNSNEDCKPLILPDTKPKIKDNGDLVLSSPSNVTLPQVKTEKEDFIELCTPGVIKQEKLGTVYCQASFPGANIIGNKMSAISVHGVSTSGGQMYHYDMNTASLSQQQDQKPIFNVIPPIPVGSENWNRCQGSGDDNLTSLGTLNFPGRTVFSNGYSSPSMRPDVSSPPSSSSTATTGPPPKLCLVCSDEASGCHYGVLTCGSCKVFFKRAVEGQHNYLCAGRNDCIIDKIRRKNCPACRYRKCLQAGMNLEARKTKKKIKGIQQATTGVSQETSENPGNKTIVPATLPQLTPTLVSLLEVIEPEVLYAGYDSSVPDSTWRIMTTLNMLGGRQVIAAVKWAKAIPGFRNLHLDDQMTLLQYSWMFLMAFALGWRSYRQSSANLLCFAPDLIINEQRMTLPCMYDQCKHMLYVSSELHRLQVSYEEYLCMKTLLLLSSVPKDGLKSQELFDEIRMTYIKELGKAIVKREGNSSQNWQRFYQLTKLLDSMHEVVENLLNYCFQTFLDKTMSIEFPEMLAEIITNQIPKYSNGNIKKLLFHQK
Description: Agonist activity at human GR assessed as dissociation half life

A further data set deals with T2, Glucocorticoid receptor (Homo sapiens, UniProt P04150).
T2 sequence (P04150 whole entry): T1 sequence (whole entry)

≈ marks a conversion by molar mass, not a printed value. A value given as a limit tells only on which side of the number the result lay.

As for `CSc1cccc(Sc2ccc([C@@H]3O[C@@H]4C[C@H]5[C@@H]6C[C@H](F)C7=CC(=O)C=C[C@]7(C)[C@@]6(F)[C@@H](O)C[C@]5(C)[C@]4(C(=O)CO)O3)cc2)c1`, the IC50 was 0.1 nM in the data set on PBMC and 47.4 nM in the data set on Blood. Besides, the values for the microsomal CLint in [1] and in data set [2] were 154 µL/min/mg and below 3.5 µL/min/mg, respectively. Moreover, the CL free in the data set on Liver microsomes was above 3080 µL/min/mg; in the data set with Rattus norvegicus [4] it was above 18000 mL/min/kg. The clearance in the data set on Rattus norvegicus [3] is 26 mL/min/kg. Besides, the bioavailability in data set [5] was below 0.5%. In data set [6], the half-life is 1.9 h.

As for `C[C@]12C=CC(=O)C=C1[C@@H](F)C[C@H]1[C@@H]3C[C@H]4O[C@@H](c5ccc(Cc6ccc(O)cc6)cc5)O[C@@]4(C(=O)CO)[C@@]3(C)C[C@H](O)[C@@]12F`, in the data set with PBMC, 0.04 nM corresponded to half-maximal inhibition (IC50).

The molecule `C[C@]12C=CC(=O)C=C1[C@@H](F)C[C@H]1[C@@H]3C[C@H]4O[C@@H](c5ccc(-c6ccccc6)cc5)O[C@@]4(C(=O)CO)[C@@]3(C)C[C@H](O)[C@@]12F` yielded an IC50 in the data set with PBMC of 0.41 nM.

Turning to `C[C@@H]1C[C@H]2[C@@H]3C[C@H](F)C4=CC(=O)C=C[C@]4(C)[C@@]3(F)[C@@H](O)C[C@]2(C)[C@@]1(OC(=O)c1ccco1)C(=O)SCF` [FLUTICASONE FUROATE], the IC50 in the data set with PBMC amounted to 0.05 nM; in the data set with Blood, 43 nM.

For `C[C@]12C=CC(=O)C=C1[C@@H](F)C[C@H]1[C@@H]3C[C@H]4O[C@@H](c5ccc(Cc6ccccc6)cc5)O[C@@]4(C(=O)CO)[C@@]3(C)C[C@H](O)[C@@]12F`, in the data set on PBMC, it took 0.17 nM to reach half-maximal inhibition (IC50).

Turning to `C[C@]12C=CC(=O)C=C1[C@@H](F)C[C@H]1[C@@H]3C[C@H]4O[C@@H](c5ccc(SCc6ccccc6)cc5)O[C@@]4(C(=O)CO)[C@@]3(C)C[C@H](O)[C@@]12F`, the IC50 with PBMC was determined as 0.16 nM.

The molecule `C[C@]12C=CC(=O)C=C1[C@@H](F)C[C@H]1[C@@H]3C[C@H]4O[C@@H](c5ccc(CSc6cccc(O)c6)cc5)O[C@@]4(C(=O)CO)[C@@]3(C)C[C@H](O)[C@@]12F` returned an IC50 in the data set on PBMC of 0.15 nM.

As to `CCC(=O)O[C@]1(C(=O)SCF)[C@H](C)C[C@H]2[C@@H]3C[C@H](F)C4=CC(=O)C=C[C@]4(C)[C@@]3(F)[C@@H](O)C[C@@]21C` [FLUTICASONE PROPIONATE], the figures for the half-maximal inhibitory concentration (IC50) in the data set on PBMC and with Blood were 0.1 nM and 9.3 nM, respectively. The microsomal CLint in data set [1] was 51 µL/min/mg; in data set [2] it was below 3.5 µL/min/mg. Also, the CL free in the data set on Liver microsomes was 300 µL/min/mg; with Rattus norvegicus [4], 1800 mL/min/kg. Further, the clearance in the data set on Rattus norvegicus [3] stood at 56 mL/min/kg. This molecule also showed a bioavailability in [5] below 2%. In data set [6], this molecule gave a half-life of 1.1 h. For the same molecule, the “inhibition (INH)” value in the data set on Rattus norvegicus [7] is listed as 29%; with Rattus norvegicus [8], 11%; in data set [9], 8%; in data set [10], 10%. The molecule further gave a solubility in [11] of 0.32 µg/mL (≈ 0.639 µM). Besides, in data set [12], the ED50 was 3 µg. Besides, the T1/2 in [13] is 9.07 h.

Regarding `C[C@]12C=CC(=O)C=C1[C@@H](F)C[C@H]1[C@@H]3C[C@H]4O[C@@H](c5ccc(CSc6ccc(O)cc6)cc5)O[C@@]4(C(=O)CO)[C@@]3(C)C[C@H](O)[C@@]12F`, the 50% inhibitory concentration (IC50) in the data set on PBMC is 0.06 nM.

In the case of `C[C@]12C=CC(=O)C=C1[C@@H](F)C[C@H]1[C@@H]3C[C@H]4O[C@@H](c5ccc(OC6=CCC(=O)N=N6)cc5)O[C@@]4(C(=O)CO)[C@@]3(C)C[C@H](O)[C@@]12F`, the IC50 in the data set with PBMC was 0.12 nM. Besides, the EC50 at Glucocorticoid receptor stood at 21.1 nM.

On to `CCCC1O[C@@H]2C[C@H]3[C@@H]4CCC5=CC(=O)C=C[C@]5(C)[C@H]4[C@@H](O)C[C@]3(C)[C@]2(C(=O)CO)O1` (stereo not given in full) [BUDESONIDE], for which the results for the IC50 in the data set on PBMC and with Blood were 0.96 nM and 8.46 nM, respectively.

In the case of `C[C@]12C=CC(=O)C=C1[C@@H](F)C[C@H]1[C@@H]3C[C@H]4O[C@@H](c5ccc(CN6CCOCC6)cc5)O[C@@]4(C(=O)CO)[C@@]3(C)C[C@H](O)[C@@]12F`, the 50% inhibitory concentration (IC50) in the data set on PBMC came to 1.81 nM.

Molecule `C[C@]12C=CC(=O)C=C1[C@@H](F)C[C@H]1[C@@H]3C[C@H]4O[C@@H](c5ccc(CSc6ccccc6)cc5)O[C@@]4(C(=O)CO)[C@@]3(C)C[C@H](O)[C@@]12F` yielded an IC50 with PBMC of 0.22 nM.

`C[C@]12C=CC(=O)C=C1[C@@H](F)C[C@H]1[C@@H]3C[C@H]4O[C@@H](c5ccc(Oc6ccccc6)cc5)O[C@@]4(C(=O)CO)[C@@]3(C)C[C@H](O)[C@@]12F` displayed an IC50 in the data set with PBMC of 0.09 nM.
